The target in this assay is T1, KMO mouse enzyme (Mus musculus, UniProt Q91WN4).
T1 construct: KMO enzyme prepared at Evotec from mouse liver (4-6 weeks old) via mitochondria isolation; from tissue; host or cells: mouse liver (4-6 weeks old), mitochondria isolation, prepared at Evotec
The assay is described as follows: KMO enzyme assay: L-Kynurenine hydroxylation to 3-Hydroxy-Kynurenine by LC/MS (protocols substantially similar to Biology Example 3). The assay is classed as biochemical. The conditions noted are these: for inhibition at 10 µM: compound at 10 uM (stated in cell; head says 30 μM). How it is done:
A method of monitoring L-Kynurenine (KYN) hydroxylation to form 3-Hydroxy-Kynurenine (30H-KYN) by LC/MS is described. Product is quantified by multiple reaction monitoring (MRM method).
• Compound: Stock concentrations: 10 mM in 100% DMSO • Enzyme: KMO enzyme prepared at Evotec from mouse liver (4-6 weeks old) via mitochondria isolation as described in the literature • Substrate: L-Kynurenine (Sigma: Cat# K3750, stock concentration: 10 mM in 100 mM potassium phosphate buffer, pH 7.4) Assay Conditions: • Buffer: 100 mM potassium phosphate, pH 7.4, 200 μM NADPH, 0.4 U/ml G6P-DH (Glucose 6-phosphate Dehydrogenase), 3 mM G6P (D-Glucose 6-phosphate) • Assay Volume: 40 μl • Plate Format: 384 well plate, transparent (Matrix) • Read-Out: product (30H-KYN) quantification using product specific MRM • Reader: LC/MS/MS Assay Protocol: • prepare serial dilution (factor 3) of compound in 100% DMSO (top concentration=10 mM, 100% DMSO) • [8 points: 10 mM; 3.33 mM; 1.11 mM; 0.37 mM; 0.12 mM; 0.04 mM; 0.0137 mM; 0.0045 mM, 0.0015 mM] • prepare […] concentrated solution of each compound concentration (top concentration 300 μM, 3% DMSO) in assay buffer • [concentrations: 300 μM; 100 μM; 33.3 μM; 11.1 μM; 3.70 μM; 1.23 μM; 0.41 μM; 0.137 μM] • prepare substrate (10 mM) at concentration of 1 mM in assay buffer • assay mix: 4 μl compound/well of each concentration+24 μl assaybuffer/well+8 μl KMO mouse enzyme+4 μl 1 mM substrate (final concentration=100 μM) • [final compound top concentration: 30 μM; 0.3% DMSO] • [final compound bottom concentration: 0.0137 μM; 0.3% DMSO] • positive control: 4 μl […] FCE28833 in assay buffer, 0.5% DMSO [final assay concentration=50 μM]+24 μl assaybuffer/well+8 μl KMO mouse enzyme+4 μl 1 mM substrate[final concentration=100 μM] • negative control: 28 μl assay buffer/well+8 μl KMO mouse enzyme+4 μl 1 mM substrate [final concentration=100 μM] • incubate 40 min at RT • add 40 μl/well 10% trichloro acetic acid in water to stop the assay and precipitate protein • centrifuge plate for 3 min at 4000 rpm • product detection by LC/MS (injection of 20 μl/well, 2 fold overfill of the 10 μl sample loop) Data Analysis:
IC50's are calculated using automated fitting algorithm (A+ Analysis).
Using the assay protocols substantially similar to those of Biology Example 3, the following compounds were tested.

The mark [1] stands for this setting: compound at 30 μM, Biology Example 4 table, read-out: Percent Inhibition at 30 μM.
The mark [2] stands for this setting: compound at 30 μM, tables of Methods 1-6, read-out: % Inhibition at 30 μM.

The structures appear in SMILES notation. Like-named read-outs stand apart in the source and are kept apart here.

T1 sequence (Q91WN4 whole entry): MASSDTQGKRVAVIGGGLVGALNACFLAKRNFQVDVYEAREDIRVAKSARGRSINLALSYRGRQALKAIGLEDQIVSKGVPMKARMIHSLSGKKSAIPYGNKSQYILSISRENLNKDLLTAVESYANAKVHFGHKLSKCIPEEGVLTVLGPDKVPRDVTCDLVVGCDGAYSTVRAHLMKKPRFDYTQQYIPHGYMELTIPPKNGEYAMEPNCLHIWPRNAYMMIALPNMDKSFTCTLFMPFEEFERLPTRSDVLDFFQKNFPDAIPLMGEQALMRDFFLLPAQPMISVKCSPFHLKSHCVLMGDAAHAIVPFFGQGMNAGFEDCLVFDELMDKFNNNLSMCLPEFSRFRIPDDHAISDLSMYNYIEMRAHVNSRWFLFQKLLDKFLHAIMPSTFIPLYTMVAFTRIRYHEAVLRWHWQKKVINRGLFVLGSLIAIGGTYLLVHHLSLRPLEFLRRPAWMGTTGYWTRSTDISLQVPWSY

For `O=C(O)[C@H]1C[C@@H]1C(=O)c1nccs1` [Example 1, Method 2, (1S,2S)-2-[(1,3-Thiazol-2-yl)carbonyl]cyclopropane-1-carboxylic acid], the inhibition at 10 µM amounted to 28.7% (Biology Example 4 table, read-out: Percent Inhibition (at 10 uM)) and 28.7% (table of Method 2, read-out: % Inhibition (at 10 uM)).

Consider `O=C(O)[C@H]1C[C@@H]1C(=O)c1ccsc1` [Example 2, Method 1, (1S,2S)-2-[(Thiophen-3-yl)carbonyl]cyclopropane-1-carboxylic acid], for which the inhibition at 30 µM under setting [1] was 83.2% and the inhibition at 30 µM under setting [2] was found to be 83.2%.

As for `O=C(O)[C@H]1C[C@@H]1C(=O)c1cc(Cl)c2ncccc2c1` [Example 3, Method 3, (1S,2S)-2-(8-Chloroquinoline-6-carbonyl)cyclopropane-1-carboxylic acid], the inhibition at 30 µM amounted to 100% under setting [1] and 100% under setting [2].

For `Cc1cc2cc(C(=O)[C@H]3C[C@@H]3C(=O)O)cc(Cl)c2o1` [Example 1, Method 6, (1S,2S)-2-(7-chloro-2-methyl-1-benzofuran-5-carbonyl)cyclopropane-1-carboxylic acid], under setting [2], the inhibition at 30 µM is 102%.

On to `O=C(O)[C@H]1C[C@@H]1C(=O)c1ccccn1` [Example 3, Method 2, (1S,2S)-2-[(Pyridin-2-yl)carbonyl]cyclopropane-1-carboxylic acid], for which the inhibition at 30 µM turned out to be 45.6% under setting [1] and 45.6% under setting [2].

Turning to `O=C(O)[C@H]1C[C@@H]1C(=O)c1ccc(Cl)s1` [Example 1, Method 1, (1S,2S)-2-[(5-Chlorothiophen-2-yl)carbonyl]cyclopropane-1-carboxylic acid], the inhibition at 30 µM is, setting by setting: under setting [1], 101%; under setting [2], 101%.

As to `O=C(O)[C@H]1C[C@@H]1C(=O)c1cccs1` [Example 3, Method 1, (1S,2S)-2-[(Thiophen-2-yl)carbonyl]cyclopropane-1-carboxylic acid], the inhibition at 30 µM under setting [1] was found to be 80.3% and the inhibition at 30 µM under setting [2] turned out to be 80.3%.

On to `Cc1nc2ccc(C(=O)[C@H]3C[C@@H]3C(=O)O)cc2s1` [Example 1, Method 3, (1S,2S)-2-(2-Methyl-1,3-benzothiazole-6-carbonyl)cyclopropane-1-carboxylic acid], for which the inhibition at 30 µM under setting [1] was found to be 74.5%. The “% Inhibition at 30 μM” value (compound at 30 μM, tables of Methods 1-6, 30 µM) is on record as 98.3%.

Take `O=C(O)[C@H]1C[C@@H]1C(=O)c1cc(Cl)c2occc2c1` [Example 1, Method 4, (1S,2S)-2-(7-Chloro-1-benzofuran-5-carbonyl)cyclopropane-1-carboxylic acid]: the inhibition at 30 µM is 100% under setting [1] and 100% under setting [2].

As for `O=C(O)[C@H]1C[C@@H]1C(=O)c1cc(Cl)c2nccnc2c1` [Example 2, Method 3, (1S,2S)-2-(8-Chloroquinoxaline-6-carbonyl)cyclopropane-1-carboxylic acid], the inhibition at 30 µM is, setting by setting: under setting [1], 101%; under setting [2], 101%.

For `O=C(O)[C@H]1C[C@@H]1C(=O)c1nc2ccccc2s1` [Example 2, Method 2, (1S,2S)-2-[(1,3-Benzothiazol-2-yl)carbonyl]cyclopropane-1-carboxylic acid], the inhibition at 30 µM under setting [1] stood at 91.8% and the inhibition at 30 µM under setting [2] was determined as 91.8%.

The values are drawn from US10428054B2, “Kynurenine-3-monooxygenase inhibitors, pharmaceutical compositions, and methods of use thereof” (CHDI Foundation, Inc., priority 2013, dated 2019).
